Results taken from article PMC12610721, “The Action of Cannabidiol on Doxycycline Cytotoxicity in Human Cells—In Vitro Study” (Molecules, 2025).
Read-outs that look alike come from different tables or passages of the source.

Tests used:
HEK-293 cells [1] = assay: mitochondrial activity (MTT assay)
Method: (§1) This innovative study evaluated the effects of cannabidiol (Cannabis sativa L.) on doxycycline-induced toxicity using three cell cultures: neural—SH-SY5Y, liver—HepG2, and kidney—HEK-293. […] A series of cytotoxicity assays included assessments of mitochondrial activity, lysosomal activity, cell membrane integrity, DNA synthesis, and cell proliferation. Based on the obtained results, IC50 values for doxycycline, both in monotherapy and in combination with CBD, were calculated, along with evaluations of ROS, death of cells, and morphology. The interaction between the drug and CBD was further analyzed by the combination index (CI).
(§2) The metabolic activity of viable cells was assessed by measuring dehydrogenase activity. After exposing the cell cultures to the test compounds, 10 µL of MTT solution (5 mg/mL in PBS) was added to each well of a 96-well plate. After 3 h of incubation, the MTT solution was removed, and the intracellular formazan was dissolved in 100 µL of DMSO. The plate was shaken for 15 min at room temperature and transferred to a Synergy 2 Multi-Mode Microplate Reader (BioTek® Instruments Inc., Winooski, VT, USA) to measure absorbance at 570 nm, using a blank as reference. Cytotoxicity was expressed as a percentage relative to the negative control.
(§3) To determine the types of interaction that occur when cells are exposed to combinations of DOX and CBD, the method established by Chou and Talalay was used in this study. The dose–effect relationships of the individual and combined test compounds were modeled biometrically using the Median-Effect Equation based on the Mass Action Law.fa/fu = (D/Dm)^m
(§4) In this isobolographic analysis, the combination index (CI) is a quantitative parameter used to evaluate the type and strength of interactions between multiple compounds. For all combinations, CI values were calculated across a range of affected fractions (Fa) from 0.05 to 0.95 (corresponding to 5–95% toxicity). CI values of 0.9–1.1, <0.9, and >1.1 indicate additive, synergistic, and antagonistic effects, respectively.
(§5) The study was conducted in three independent experiments (n = 3). […] Cytotoxicity data were analyzed using one-way analysis of variance (ANOVA), followed by Dunnett’s post hoc test to assess significance relative to the negative control. The half-maximal inhibitory concentration (IC50), representing the drug or drug–CBD mixture concentration required to inhibit cell viability by 50%, was calculated using GraphPad Prism 5.0. Statistical comparisons between IC50 values were performed using ANOVA followed by Tukey’s post hoc test. Differences were considered statistically significant at p ≤ 0.05.

HepG2 cells = assay: mitochondrial activity (MTT assay)
Method: as §1, §2, §3, §4, §5

SH-SY5Y cells = assay: mitochondrial activity (MTT assay); settings: 72 h
Method: as §1, §2, §3, §4, §5

HEK-293 cells [2] = test system: HEK-293 cells; set-up: method as in earlier work; settings: cited from earlier work; for IC50: HEK-293, 48 h of exposure

## C[C@H]1c2cccc(O)c2C(=O)C2=C(O)[C@]3(O)C(=O)C(C(N)=O)=C(O)[C@@H](N(C)C)[C@@H]3[C@@H](O)[C@@H]21 [DOX, doxycycline hyclate]
HEK-293 cells [1]; HEK-293, MTT, 72 h
  doxycycline concentration that inhibited mitochondrial activity: 6.25 µg/mL
HEK-293 cells [1]; Homo sapiens, HEK293, 72 h
  IC50: 17.4 ± 1 µg/mL
HepG2 cells; HepG2, MTT, 72 h
  doxycycline concentration that impaired mitochondrial function: 50 µg/mL
HepG2 cells; Homo sapiens, HepG2, 72 h
  IC50: > 200 µg/mL
SH-SY5Y cells; Homo sapiens
  IC50: 9.8 ± 0.9 µg/mL
SH-SY5Y cells; MTT, p ≤ 0.05 vs negative control
  doxycycline concentration from which mitochondrial activity was inhibited: 6.25 µg/mL
HEK-293 cells [2]; HEK-293, 20 µg/mL
  effect on cell viability: reduces the viability
  induction of apoptosis: does not induce apoptosis
HEK-293 cells [2]; converted value in brackets
  IC50: 6.05 µg/mL
HEK-293 cells [2]; read-out: IC50
  IC50: 11.8 µM
